Experiments:
[1] = target: ROCK1 (Homo sapiens (Human), UniProt Q13464); assay: ROCK assay (Caliper LABCHIP peptide phosphorylation), ROCK1; assay type: biochemical; details: 5 μM ATP, 1.5 μM peptide substrate;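 also: Read-out is separation of phosphorylated from unphosphorylated peptide, with kinase activity inhibition computed at every concentration of a dose-response series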
[2] = target: ROCK2 (Homo sapiens (Human), UniProt O75116); assay: ROCK assay (Caliper LABCHIP peptide phosphorylation), ROCK2; assay type: biochemical; details: 5 μM ATP, 1.5 μM peptide substrate;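 also: reaction stopped with EDTA, then phosphorylated and unphosphorylated peptide resolved by microfluidic electrophoresis, kinase inhibition computed at each compound concentration in dose-response series, DMSO under 2%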
ROCK2, sequence (O75116 whole entry, species assumed): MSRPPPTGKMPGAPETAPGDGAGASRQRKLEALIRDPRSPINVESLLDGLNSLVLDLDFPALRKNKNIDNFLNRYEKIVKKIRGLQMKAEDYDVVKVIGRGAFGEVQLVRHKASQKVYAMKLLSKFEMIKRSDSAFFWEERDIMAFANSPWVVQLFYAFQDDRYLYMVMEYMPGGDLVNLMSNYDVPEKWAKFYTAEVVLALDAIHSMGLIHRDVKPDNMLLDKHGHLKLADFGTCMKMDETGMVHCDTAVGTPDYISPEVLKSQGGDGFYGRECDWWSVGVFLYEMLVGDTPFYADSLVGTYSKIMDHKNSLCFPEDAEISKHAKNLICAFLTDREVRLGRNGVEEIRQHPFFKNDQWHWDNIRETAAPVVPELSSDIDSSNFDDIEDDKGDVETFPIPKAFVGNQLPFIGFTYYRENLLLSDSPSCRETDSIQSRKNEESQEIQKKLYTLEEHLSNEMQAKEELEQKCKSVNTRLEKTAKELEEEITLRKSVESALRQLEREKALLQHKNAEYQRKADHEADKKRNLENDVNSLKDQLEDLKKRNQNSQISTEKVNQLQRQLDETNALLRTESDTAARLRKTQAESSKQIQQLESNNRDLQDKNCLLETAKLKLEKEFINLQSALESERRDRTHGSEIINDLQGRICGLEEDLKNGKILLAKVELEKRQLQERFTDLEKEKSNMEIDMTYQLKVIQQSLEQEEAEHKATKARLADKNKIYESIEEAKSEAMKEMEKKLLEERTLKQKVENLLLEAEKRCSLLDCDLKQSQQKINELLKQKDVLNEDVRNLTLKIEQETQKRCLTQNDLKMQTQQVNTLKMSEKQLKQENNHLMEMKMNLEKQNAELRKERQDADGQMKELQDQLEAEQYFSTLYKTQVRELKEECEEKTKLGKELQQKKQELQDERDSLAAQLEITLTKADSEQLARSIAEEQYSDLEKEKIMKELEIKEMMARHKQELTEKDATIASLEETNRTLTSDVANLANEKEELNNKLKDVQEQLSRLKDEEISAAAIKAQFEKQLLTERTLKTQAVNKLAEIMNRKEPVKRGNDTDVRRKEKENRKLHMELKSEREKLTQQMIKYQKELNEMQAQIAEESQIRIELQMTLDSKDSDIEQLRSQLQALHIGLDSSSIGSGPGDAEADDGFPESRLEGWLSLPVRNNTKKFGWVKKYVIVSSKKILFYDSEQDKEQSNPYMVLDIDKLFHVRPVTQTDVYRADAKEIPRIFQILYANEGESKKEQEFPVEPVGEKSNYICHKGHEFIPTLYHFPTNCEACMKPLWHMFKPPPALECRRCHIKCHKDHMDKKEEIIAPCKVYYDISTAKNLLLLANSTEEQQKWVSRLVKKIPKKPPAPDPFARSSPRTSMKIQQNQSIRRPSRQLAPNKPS

ROCK1, sequence (Q13464 whole entry, species assumed): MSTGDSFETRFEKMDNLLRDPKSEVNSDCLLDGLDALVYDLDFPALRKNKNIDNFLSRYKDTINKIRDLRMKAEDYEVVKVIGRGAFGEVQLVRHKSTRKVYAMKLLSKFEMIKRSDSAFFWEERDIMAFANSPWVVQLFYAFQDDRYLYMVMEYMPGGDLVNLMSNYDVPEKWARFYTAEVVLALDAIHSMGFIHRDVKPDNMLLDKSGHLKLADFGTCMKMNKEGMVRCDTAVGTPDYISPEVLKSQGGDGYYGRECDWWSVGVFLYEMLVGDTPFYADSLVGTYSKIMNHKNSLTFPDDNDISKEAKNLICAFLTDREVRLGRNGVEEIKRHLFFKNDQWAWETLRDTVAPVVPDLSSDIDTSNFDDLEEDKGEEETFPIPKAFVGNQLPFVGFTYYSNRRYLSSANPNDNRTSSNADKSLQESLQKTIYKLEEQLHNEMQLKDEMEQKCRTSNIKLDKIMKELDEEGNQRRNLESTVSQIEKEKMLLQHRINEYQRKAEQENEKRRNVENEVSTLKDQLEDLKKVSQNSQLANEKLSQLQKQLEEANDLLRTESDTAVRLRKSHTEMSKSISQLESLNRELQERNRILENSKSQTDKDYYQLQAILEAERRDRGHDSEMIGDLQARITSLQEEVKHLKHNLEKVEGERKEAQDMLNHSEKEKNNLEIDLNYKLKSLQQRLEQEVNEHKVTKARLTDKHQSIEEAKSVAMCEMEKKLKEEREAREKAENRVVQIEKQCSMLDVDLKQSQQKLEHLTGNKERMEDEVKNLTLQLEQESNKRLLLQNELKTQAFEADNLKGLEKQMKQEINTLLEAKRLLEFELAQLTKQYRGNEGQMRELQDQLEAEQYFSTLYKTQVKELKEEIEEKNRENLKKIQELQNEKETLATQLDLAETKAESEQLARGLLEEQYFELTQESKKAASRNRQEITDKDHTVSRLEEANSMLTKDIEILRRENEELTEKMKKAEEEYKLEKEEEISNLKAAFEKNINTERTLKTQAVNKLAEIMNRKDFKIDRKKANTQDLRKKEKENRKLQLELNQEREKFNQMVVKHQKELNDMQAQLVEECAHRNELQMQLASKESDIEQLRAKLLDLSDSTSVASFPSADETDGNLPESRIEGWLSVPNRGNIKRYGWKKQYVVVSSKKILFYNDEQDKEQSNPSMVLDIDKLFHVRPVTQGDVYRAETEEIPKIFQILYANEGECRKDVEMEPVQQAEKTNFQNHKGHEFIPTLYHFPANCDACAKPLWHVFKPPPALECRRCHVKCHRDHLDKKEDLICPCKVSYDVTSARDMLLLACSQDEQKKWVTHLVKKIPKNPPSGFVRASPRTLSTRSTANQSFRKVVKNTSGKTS

IC50 [1]	IC50 [2]	Compound
287 nM	263 nM	COC[C@@H](NC(=O)c1ccc(-c2cn[nH]c2)c(C(C)O)c1)c1ccccc1 (stereo partly drawn) [Example 274, 3-(1-hydroxyethyl)-N-[(1S)-2-methoxy-1-phenylethyl]-4-(1H-pyrazol-4-yl)benzamide]
15.4 nM	12.9 nM	COc1cc(-c2cn[nH]c2)ccc1C(=O)N[C@@H](Cc1ccccc1)[C@H](O)CO [Example 217, N-[(2S,3S)-3,4-dihydroxy-1-phenylbutan-2-yl]-2-methoxy-4-(1H-pyrazol-4-yl)benzamide]
52.6 nM	17.6 nM	Cc1cc(C(=O)N[C@H](CO)c2c(F)cccc2F)ccc1-c1cn[nH]c1 [Example 197, N-[(1S)-1-(2,6-difluorophenyl)-2-hydroxyethyl]-3-methyl-4-(1H-pyrazol-4-yl)benzamide]
9.8 nM	15.2 nM	COc1cc(-c2cn[nH]c2)ccc1C(=O)N[C@H](CO)Cc1ccccc1 [Example 204, N-[(2S)-1-hydroxy-3-phenylpropan-2-yl]-2-methoxy-4-(1H-pyrazol-4-yl)benzamide]
193 nM	55.7 nM	O=C(N[C@H](CO)c1c(F)cccc1F)c1ccc(-c2cn[nH]c2)c(C(F)(F)F)c1 [Example 202, N-[(1S)-1-(2,6-difluorophenyl)-2-hydroxyethyl]-4-(1H-pyrazol-4-yl)-3-(trifluoromethyl) benzamide]
8.92 nM	3.45 nM	NC[C@@H](NC(=O)c1ccc(-c2cn[nH]c2)c(OCCO)c1)c1ccccc1 [Example 258, N-[(15)-2-amino-1-phenylethyl]-3-(2-hydroxyethoxy)-4-(1H-pyrazol-4-yl)benzamide]
172 nM	47.2 nM	COc1ccc(F)c(C(C)NC(=O)c2ccc(-c3cn[nH]c3)c(OC)c2)c1 (stereo not shown) [Example 139, N-[1-(2-fluoro-5-methoxy-phenyl)ethyl]-3-methoxy-4-(1H-pyrazol-4-yl)benzamide]
50.6 nM	5.43 nM	CC(O)c1cc(C(=O)N[C@H](C)c2ccccc2F)ccc1-c1cn[nH]c1 (stereo partly drawn) [Example 283, N-[(1R)-1-(2-fluorophenyl)ethyl]-3-(1-hydroxyethyl)-4-(1H-pyrazol-4-yl)benzamide]
> 2000 nM	443 nM	CC(O)c1cc(C(=O)N[C@H](C)c2ccccc2)ccc1-c1cn[nH]c1 (stereo partly drawn) [Example 280, 3-(1-hydroxyethyl)-N-[(1R)-1-phenylethyl]-4-(1H-pyrazol-4-yl)benzamide]
145 nM	54.6 nM	C[C@@H](NC(=O)c1ccc(-c2cn[nH]c2)c(N(C)C)c1)c1ccc(F)cc1 [Example 296, (R)-3-(Dimethylamino)-N-(1-(4-fluorophenyl)ethyl)-4-(1H-pyrazol-4-yl)benzamide]
345 nM	5.62 nM	COc1cc(-c2cn[nH]c2)ccc1C(=O)NC(CO)c1ccccc1F (stereo not shown) [Example 205, N-[1-(2-fluorophenyl)-2-hydroxyethyl]-2-methoxy-4-(1H-pyrazol-4-yl)benzamide]
131 nM	32.3 nM	COc1cccc(CNC(=O)c2ccc(-c3cn[nH]c3)cc2N)c1 [Example 214, 2-amino-N-[(3-methoxyphenyl)methyl]-4-(1H-pyrazol-4-yl)benzamide]
> 2000 nM	1900 nM	C[C@@H](NC(=O)c1ccc(-c2cn[nH]c2)c(Cn2ccnn2)c1)c1ccccc1 [Example 137, N-[(1R)-1-phenylethyl]-4-(1H-pyrazol-4-yl)-3-(1H-1,2,3-triazol-1-ylmethyl) benzamide]
8.55 nM	1.98 nM	COc1cc(C(=O)N[C@@H](c2ccccc2)[C@H](O)CO)ccc1-c1cn[nH]c1 [Example 224, N-[(1S,2S)-2,3-dihydroxy-1-phenylpropyl]-3-methoxy-4-(1H-pyrazol-4-yl)benzamide]
> 2000 nM	208 nM	C[C@@H](NC(=O)c1ccc(-c2cn[nH]c2)c(S(C)(=O)=O)c1)c1ccccc1 [Example 188, 3-methanesulfonyl-N-[(1R)-1-phenylethyl]-4-(1H-pyrazol-4-yl)benzamide]
174 nM	51.2 nM	COc1ccc(F)c(CNC(=O)c2ccc(-c3cn[nH]c3)c(C)c2)c1 [Example 148, N-[(2-fluoro-5-methoxyphenyl)methyl]-3-methyl-4-(1H-pyrazol-4-yl)benzamide]

The next lines start with the compound.

Compound	IC50 [1]	IC50 [2]
COc1cc(C(=O)NCc2csc(-c3ccccc3)n2)ccc1-c1cn[nH]c1 [Example 9, 3-methoxy-N-((2-phenylthiazol-4-yl)methyl)-4-(1H-pyrazol-4-yl)benzamide]	155 nM	61.9 nM
COc1cc(C(=O)NCc2ccc(OCC(C)C)cc2Cl)ccc1-c1cn[nH]c1 [Example 46, N-(2-chloro-4-isobutoxybenzyl)-3-methoxy-4-(1H-pyrazol-4-yl)benzamide]	1880 nM	786 nM
COc1cc(C(=O)NCc2cc(F)cc(F)c2)ccc1-c1cn[nH]c1 [Example 52, N-(3,5-difluorobenzyl)-3-methoxy-4-(1H-pyrazol-4-yl)benzamide]	125 nM	63.4 nM
COc1cc(C(=O)NCCc2ccc(F)cc2)ccc1-c1cn[nH]c1 [Example 24, N-(4-fluorophenethyl)-3-methoxy-4-(1H-pyrazol-4-yl)benzamide]	37.4 nM	15.6 nM
COc1cc(C(=O)NCc2cc(F)ccc2F)ccc1-c1cn[nH]c1 [Example 69, N-(2,5-difluorobenzyl)-3-methoxy-4-(1H-pyrazol-4-yl)benzamide]	18.6 nM	5.2 nM
COc1cc(C(=O)NCC(c2ccccc2)N2CCNCC2)ccc1-c1cn[nH]c1 (stereo not shown) [Example 132, 3-methoxy-N-[2-phenyl-2-(piperazin-1-yl)ethyl]-4-(1H-pyrazol-4-yl)benzamide]	180 nM	103 nM
COc1cc(C(=O)NCc2cccc(N(C)C(C)=O)c2)ccc1-c1cn[nH]c1 [Example 100, 3-methoxy-N-{[3-(N-methyl-acetamido)phenyl]methyl}-4-(1H-pyrazol-4-yl)benzamide]	4080 nM	299 nM
COc1cc(C(=O)NCc2cc(F)c(F)c(F)c2)ccc1-c1cn[nH]c1 [Example 75, 3-methoxy-4-(1H-pyrazol-4-yl)-N-(3,4,5-trifluorobenzyl) benzamide]	34.1 nM	8.26 nM
COc1cccc([C@@H](C)NC(=O)c2ccc(-c3cn[nH]c3)cc2S(C)(=O)=O)c1 [Example 61, (R)-N-(1-(3-Methoxyphenyl)ethyl)-2-(methylsulfonyl)-4-(1H-pyrazol-4-yl)benzamide]	> 2000 nM	4590 nM
CN(C)CCOc1cc(C(=O)NCc2ccccc2Cl)ccc1-c1cn[nH]c1 [Example 63, N-(2-Chlorobenzyl)-3-(2-(dimethylamino)ethoxy)-4-(1H-pyrazol-4-yl)benzamide]	1580 nM	844 nM
COc1cc(C(=O)NCc2ccccc2F)ccc1-c1cn[nH]c1 [Example 25, N-(2-fluorobenzyl)-3-methoxy-4-(1H-pyrazol-4-yl)benzamide]	7.9 nM	2.65 nM
COc1cc(C(=O)NCc2cccc(N(C)C)c2)ccc1-c1cn[nH]c1 [Example 95, N-{[3-(dimethylamino)phenyl]methyl}-3-methoxy-4-(1H-pyrazol-4-yl)benzamide]	371 nM	47.6 nM
N-(4- chlorobenzyl)- 3-methoxy-4- (1H-pyrazol-4- yl)benzamide [Example 33]	26.5 nM	4.93 nM

Reference: patent publication US9458110B2, “Phenylpyrazole derivatives as potent ROCK1 and ROCK2 inhibitors” (BRISTOL-MYERS SQUIBB COMPANY, priority 2013, dated 2016)
